Numbering of substitutions follows the chain as printed.

In general, Kd refers to the free concentration of one partner at which half of the binding sites on the other are occupied at equilibrium, for simple one-to-one binding. Higher therefore signals weaker binding. By IC50 is commonly meant the concentration that gives 50% inhibition. Read a low IC50 as greater potency. The log P is a log measure of how a compound divides between an organic and an aqueous phase.

For data set [1], the target named is T1, human CYP51 (Homo sapiens, UniProt Q16850).
T1 sequence (Q16850 1-509): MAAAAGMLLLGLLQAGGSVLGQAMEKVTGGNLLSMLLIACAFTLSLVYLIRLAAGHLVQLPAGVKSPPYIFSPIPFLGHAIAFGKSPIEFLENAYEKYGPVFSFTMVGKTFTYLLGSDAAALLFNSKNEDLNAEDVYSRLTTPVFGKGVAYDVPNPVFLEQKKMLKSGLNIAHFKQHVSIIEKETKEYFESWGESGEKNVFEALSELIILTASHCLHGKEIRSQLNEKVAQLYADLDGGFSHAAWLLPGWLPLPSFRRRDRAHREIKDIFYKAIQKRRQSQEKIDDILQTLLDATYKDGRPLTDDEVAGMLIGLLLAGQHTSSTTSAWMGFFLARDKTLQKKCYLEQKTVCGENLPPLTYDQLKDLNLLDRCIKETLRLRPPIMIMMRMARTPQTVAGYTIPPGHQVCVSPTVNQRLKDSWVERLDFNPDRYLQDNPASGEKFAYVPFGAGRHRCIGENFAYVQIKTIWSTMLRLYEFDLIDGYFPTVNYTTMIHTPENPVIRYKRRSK
Kind of data set: CYP51 inhibitor binding assay.

For data set [2], the target named is T2, T318I mutant of human CYP51 (Homo sapiens, UniProt Q16850, T324I).
T2 sequence (Q16850 1-509 T324I): T1 sequence (Q16850 1-509) with T324I
In words: CYP51 activity assay, inhibition of the T318I mutant. The format is biochemical.

Data set [3] addresses T3, human CYP51 (WT) (Homo sapiens, UniProt Q16850).
T3 sequence (Q16850 1-509): T1 sequence (Q16850 1-509)
Kind of data set: CYP51 activity assay, inhibition of lanosterol 14α-demethylation. The format is biochemical. Particulars: WT enzyme, 1 h reaction.

Data set [4] addresses T2, T318I mutant of human CYP51. Kind of data set: CYP51 inhibitor binding assay, T318I mutant.
The conditions of data set [5]: quoted in legend of Figure 1, reference not given; cited from earlier work.

As to `O=C(N[C@@H](Cn1ccnc1)c1ccc(Cl)cc1Cl)c1ccc(-c2nnc(-c3ccccc3)o2)cc1` [VNI, (R)-N-(1-(2,4-dichlorophenyl)-2-(1 H-imidazol-1-yl)ethyl)-4-(5-phenyl-1,3,4-oxadiazol-2-yl)benzamide], the results for the Kd in data set [1] and in data set [4] were 4.7 µM and 0.4 µM, respectively. The 50% inhibitory concentration (IC50) in data set [2] is over 25 µM. In data set [3], the “inhibition of human CYP51 activity (in words)” value is given as “does not inhibit the WT human CYP51 at all”. In data set [4] (T318I vs WT enzyme), the “increase of binding affinity for the mutant” value is listed as “approximately 12 fold”.

Consider `C[C@@H](NCCCc1cccc(C(F)(F)F)c1)c1cccc2ccccc12` [cinacalcet], for which the lipophilicity (log P) in data set [5] is listed as 6.5. Turning to `CC[C@@H]([C@H](C)O)n1ncn(-c2ccc(N3CCN(c4ccc(OC[C@@H]5CO[C@@](Cn6cncn6)(c6ccc(F)cc6F)C5)cc4)CC3)cc2)c1=O` [posaconazole], in data set [5], the “log P” value is 5.5. Turning to `O=C(N[C@@H](Cn1ccnc1)c1ccc(-c2ccc(F)cc2)cc1F)c1ccc(-c2nnc(-c3ccccc3)o2)cc1` [VFV], in data set [1] (inhibitor-bound human CYP51, red shift from 417 nm), the Soret band maximum came to 425 nm.

For the molecule `CCC(C)n1ncn(-c2ccc(N3CCN(c4ccc(OCC5COC(Cn6cncn6)(c6ccc(Cl)cc6Cl)O5)cc4)CC3)cc2)c1=O` (stereo not drawn) [itraconazole], the “log P” value in data set [5] is 6.8.

Values taken from paper PMC6881533 (Journal of medicinal chemistry, 2019).
